“And” between values parts separate entries of the source, which are not always exact repeats. Equal values may be shown once.
Tests used:
Experiment in all cases: radiometric filter-binding kinase assay, Kinase HotSpot
Conditions in all cases: compound 0.5 µM; ATP 10 µM
[1] = target: MARK3 (human) (UniProt P27448)
[2] = target: NEK11 (human) (UniProt Q8NG66)
[3] = target: FGFR3 (human) (UniProt P22607)
[4] = target: JAK3 JH1 JH2 (human) (UniProt P52333)
[5] = target: HIPK1 (human) (UniProt Q86Z02)
[6] = target: SLK (human) (UniProt Q9H2G2)
[7] = target: DYRK1B (human) (UniProt Q9Y463)
[8] = target: MET (human) (UniProt P08581)
[9] = target: MAPKAPK5 (human) (UniProt Q8IW41)
[10] = target: PRKD2 (human) (UniProt Q9BZL6)
[11] = target: PRKD1 (human) (UniProt Q15139)
[12] = target: NTRK1 (human) (UniProt P04629)
[13] = target: CAMK1D (human) (UniProt Q8IU85)
[14] = target: HCK (human) (UniProt P08631)
[15] = target: RPS6KA1 KD1 KD2 (human) (UniProt Q15418)
[16] = target: RPS6KB1 (human) (UniProt P23443)
[17] = target: DDR2 (human) (UniProt Q16832)
[18] = target: NEK1 (human) (UniProt Q96PY6)
[19] = target: TBK1 (human) (UniProt Q9UHD2)
[20] = target: NTRK3 (human) (UniProt Q16288)
[21] = target: BRSK2 (human) (UniProt Q8IWQ3)
[22] = target: SRPK3 (human) (UniProt Q9UPE1)
[23] = target: EPHB3 (human) (UniProt P54753)
[24] = target: PDGFRA (human) (UniProt P16234)
[25] = target: PNCK (human) (UniProt Q6P2M8)
[26] = target: MST4 (human) (UniProt Q9P289)
[27] = target: MAP3K3 (human) (UniProt Q99759)
[28] = target: CAMK1G (human) (UniProt Q96NX5)
[29] = target: GRK4 (human) (UniProt P32298)
[30] = target: PTK2 (human) (UniProt Q05397)
[31] = target: PRKG1 (human) (UniProt Q13976)
[32] = target: CAMK2G (human) (UniProt Q13555)
[33] = target: NLK (human) (UniProt Q9UBE8)
[34] = target: ACVR1 (human) (UniProt Q04771)
[35] = target: NEK7 (human) (UniProt Q8TDX7)
[36] = target: MAPK8 (human) (UniProt P45983)
[37] = target: EPHA2 (human) (UniProt P29317)
[38] = target: MINK1 (human) (UniProt Q8N4C8)
[39] = target: DYRK2 (human) (UniProt Q92630)
[40] = target: CSNK1A1 (human) (UniProt P48729)
[41] = target: MAPK12 (human) (UniProt P53778)
[42] = target: PRKCZ (human) (UniProt Q05513)

Chain of EPHB3 (human) (P54753 whole entry, looked up): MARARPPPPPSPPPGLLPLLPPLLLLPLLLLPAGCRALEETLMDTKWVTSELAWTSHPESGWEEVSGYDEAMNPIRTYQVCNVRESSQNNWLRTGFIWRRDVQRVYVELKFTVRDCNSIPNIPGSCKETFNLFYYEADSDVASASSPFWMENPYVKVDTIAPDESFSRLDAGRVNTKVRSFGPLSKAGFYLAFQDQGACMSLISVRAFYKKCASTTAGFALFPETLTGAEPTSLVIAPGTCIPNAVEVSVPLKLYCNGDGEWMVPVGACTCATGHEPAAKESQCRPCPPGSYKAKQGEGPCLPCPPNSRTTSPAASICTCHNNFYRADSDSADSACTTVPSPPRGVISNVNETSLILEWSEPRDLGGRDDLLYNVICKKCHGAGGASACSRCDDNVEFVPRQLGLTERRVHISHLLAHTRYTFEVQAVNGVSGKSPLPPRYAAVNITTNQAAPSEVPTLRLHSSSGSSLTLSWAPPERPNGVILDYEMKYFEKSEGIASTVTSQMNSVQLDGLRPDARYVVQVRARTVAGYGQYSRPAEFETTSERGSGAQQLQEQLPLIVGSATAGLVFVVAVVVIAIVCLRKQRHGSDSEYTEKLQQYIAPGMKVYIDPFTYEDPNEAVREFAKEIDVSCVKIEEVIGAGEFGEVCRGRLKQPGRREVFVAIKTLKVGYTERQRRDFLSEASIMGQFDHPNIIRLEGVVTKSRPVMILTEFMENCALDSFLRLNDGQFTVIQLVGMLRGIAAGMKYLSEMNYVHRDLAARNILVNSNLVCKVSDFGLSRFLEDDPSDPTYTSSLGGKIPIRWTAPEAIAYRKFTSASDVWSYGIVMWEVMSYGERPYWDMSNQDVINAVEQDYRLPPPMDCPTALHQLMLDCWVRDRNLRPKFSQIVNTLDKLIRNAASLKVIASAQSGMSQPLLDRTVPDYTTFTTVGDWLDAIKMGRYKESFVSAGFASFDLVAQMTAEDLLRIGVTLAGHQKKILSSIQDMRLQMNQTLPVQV
Chain of CAMK1G (human) (Q96NX5 whole entry, looked up): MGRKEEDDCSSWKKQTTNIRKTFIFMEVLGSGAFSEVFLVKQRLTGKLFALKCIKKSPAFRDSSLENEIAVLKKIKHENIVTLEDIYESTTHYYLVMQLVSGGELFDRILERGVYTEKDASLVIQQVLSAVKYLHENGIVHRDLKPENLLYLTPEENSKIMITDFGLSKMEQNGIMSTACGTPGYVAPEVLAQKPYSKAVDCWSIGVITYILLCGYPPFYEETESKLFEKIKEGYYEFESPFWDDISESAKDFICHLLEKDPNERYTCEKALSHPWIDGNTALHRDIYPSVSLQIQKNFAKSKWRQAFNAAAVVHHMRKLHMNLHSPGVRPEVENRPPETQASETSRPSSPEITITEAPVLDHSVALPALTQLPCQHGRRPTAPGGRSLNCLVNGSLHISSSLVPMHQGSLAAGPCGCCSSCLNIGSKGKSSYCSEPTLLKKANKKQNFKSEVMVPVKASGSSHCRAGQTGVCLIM
Chain of NTRK3 (human) (Q16288 whole entry, looked up): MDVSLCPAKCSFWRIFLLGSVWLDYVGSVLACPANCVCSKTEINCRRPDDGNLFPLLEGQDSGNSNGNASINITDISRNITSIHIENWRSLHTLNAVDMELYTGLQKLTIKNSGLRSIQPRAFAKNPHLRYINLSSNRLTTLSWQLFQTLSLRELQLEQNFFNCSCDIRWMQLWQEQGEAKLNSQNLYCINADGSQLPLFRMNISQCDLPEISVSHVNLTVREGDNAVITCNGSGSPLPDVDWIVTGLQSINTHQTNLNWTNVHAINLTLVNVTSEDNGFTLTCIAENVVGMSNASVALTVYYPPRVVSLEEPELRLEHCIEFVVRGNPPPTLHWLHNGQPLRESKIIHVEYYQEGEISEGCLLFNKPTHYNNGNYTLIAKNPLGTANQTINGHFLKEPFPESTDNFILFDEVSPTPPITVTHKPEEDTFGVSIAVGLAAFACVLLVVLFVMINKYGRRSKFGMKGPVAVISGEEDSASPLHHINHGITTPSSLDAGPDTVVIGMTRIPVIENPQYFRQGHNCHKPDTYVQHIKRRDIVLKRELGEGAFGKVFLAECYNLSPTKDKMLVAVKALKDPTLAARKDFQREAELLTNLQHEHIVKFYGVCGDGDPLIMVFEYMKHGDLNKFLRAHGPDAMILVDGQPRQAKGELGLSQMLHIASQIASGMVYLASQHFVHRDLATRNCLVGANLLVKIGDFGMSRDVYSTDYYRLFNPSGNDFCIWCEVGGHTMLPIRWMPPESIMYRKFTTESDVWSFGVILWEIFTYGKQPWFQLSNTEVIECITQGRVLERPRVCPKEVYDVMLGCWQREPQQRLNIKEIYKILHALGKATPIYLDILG
Chain of HCK (human) (P08631 whole entry, looked up): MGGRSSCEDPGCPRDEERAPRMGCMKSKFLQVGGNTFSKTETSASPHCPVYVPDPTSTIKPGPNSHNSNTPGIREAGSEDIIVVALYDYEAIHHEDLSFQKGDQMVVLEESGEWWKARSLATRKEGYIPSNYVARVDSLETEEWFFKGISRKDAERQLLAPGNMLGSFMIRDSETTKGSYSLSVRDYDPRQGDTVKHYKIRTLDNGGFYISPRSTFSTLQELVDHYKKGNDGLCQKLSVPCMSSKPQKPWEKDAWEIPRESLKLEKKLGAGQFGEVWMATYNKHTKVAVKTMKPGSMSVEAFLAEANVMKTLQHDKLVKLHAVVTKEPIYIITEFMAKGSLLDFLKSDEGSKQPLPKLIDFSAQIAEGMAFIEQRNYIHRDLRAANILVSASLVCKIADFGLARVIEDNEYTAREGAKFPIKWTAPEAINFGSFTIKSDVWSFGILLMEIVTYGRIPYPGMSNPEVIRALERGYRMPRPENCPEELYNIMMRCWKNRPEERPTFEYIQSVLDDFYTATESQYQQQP
Chain of SLK (human) (Q9H2G2 whole entry, looked up): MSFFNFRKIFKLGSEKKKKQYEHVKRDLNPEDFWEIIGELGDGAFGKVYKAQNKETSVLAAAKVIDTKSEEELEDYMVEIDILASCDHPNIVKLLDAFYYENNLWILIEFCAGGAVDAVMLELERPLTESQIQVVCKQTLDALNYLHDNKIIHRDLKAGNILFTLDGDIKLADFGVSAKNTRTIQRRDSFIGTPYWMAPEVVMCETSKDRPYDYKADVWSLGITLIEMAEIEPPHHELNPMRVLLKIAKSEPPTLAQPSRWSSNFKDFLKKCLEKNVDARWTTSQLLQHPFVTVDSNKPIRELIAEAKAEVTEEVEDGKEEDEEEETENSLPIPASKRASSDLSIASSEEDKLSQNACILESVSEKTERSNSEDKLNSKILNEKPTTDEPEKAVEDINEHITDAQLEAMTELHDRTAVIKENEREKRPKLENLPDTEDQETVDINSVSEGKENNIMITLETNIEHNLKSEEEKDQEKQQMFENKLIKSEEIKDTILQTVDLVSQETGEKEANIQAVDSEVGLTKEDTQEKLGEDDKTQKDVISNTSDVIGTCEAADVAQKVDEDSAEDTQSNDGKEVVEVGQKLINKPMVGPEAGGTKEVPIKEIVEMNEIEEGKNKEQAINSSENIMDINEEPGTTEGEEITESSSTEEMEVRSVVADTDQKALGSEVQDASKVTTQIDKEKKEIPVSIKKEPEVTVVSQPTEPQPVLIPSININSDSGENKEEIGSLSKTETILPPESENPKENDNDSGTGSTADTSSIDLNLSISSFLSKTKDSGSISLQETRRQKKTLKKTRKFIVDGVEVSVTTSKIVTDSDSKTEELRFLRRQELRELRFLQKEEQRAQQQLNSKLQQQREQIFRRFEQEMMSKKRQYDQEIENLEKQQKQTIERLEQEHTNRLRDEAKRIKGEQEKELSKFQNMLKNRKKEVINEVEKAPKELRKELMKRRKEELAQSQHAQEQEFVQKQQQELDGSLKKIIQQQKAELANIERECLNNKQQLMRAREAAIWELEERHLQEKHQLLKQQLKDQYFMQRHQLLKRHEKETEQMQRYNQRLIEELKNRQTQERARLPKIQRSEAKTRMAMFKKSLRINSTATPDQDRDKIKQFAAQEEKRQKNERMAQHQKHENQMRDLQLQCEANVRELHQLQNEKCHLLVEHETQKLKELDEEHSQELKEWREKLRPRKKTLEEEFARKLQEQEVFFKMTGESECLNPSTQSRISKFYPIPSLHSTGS
Chain of GRK4 (human) (P32298 whole entry, looked up): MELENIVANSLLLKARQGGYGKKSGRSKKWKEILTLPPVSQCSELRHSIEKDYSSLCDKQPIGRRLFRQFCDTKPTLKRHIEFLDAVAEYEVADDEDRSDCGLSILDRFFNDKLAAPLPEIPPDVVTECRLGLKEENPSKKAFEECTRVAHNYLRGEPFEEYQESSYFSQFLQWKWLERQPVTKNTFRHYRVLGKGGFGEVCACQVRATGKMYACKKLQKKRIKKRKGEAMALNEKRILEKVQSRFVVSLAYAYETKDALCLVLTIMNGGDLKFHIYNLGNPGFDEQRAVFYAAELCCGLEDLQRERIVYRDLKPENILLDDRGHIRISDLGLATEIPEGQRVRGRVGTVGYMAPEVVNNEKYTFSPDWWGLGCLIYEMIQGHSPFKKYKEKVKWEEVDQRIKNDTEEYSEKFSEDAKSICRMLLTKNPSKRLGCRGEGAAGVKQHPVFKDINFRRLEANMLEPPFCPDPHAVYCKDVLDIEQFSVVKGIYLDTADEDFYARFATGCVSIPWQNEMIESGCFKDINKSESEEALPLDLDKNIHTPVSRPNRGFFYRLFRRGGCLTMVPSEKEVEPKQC
Chain of CSNK1A1 (human) (P48729 whole entry, looked up): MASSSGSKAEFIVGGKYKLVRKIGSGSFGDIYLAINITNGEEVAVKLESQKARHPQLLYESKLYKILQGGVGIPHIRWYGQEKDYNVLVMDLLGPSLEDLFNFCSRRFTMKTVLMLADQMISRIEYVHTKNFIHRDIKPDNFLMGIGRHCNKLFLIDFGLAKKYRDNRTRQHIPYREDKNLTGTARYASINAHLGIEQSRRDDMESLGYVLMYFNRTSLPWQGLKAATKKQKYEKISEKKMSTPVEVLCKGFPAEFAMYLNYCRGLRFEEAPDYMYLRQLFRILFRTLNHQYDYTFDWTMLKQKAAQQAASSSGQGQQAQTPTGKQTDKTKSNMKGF

Work on `O=C(c1cc2cc(O)ccc2[nH]1)c1cc2cc(O)ccc2[nH]1` yielded a residual activity [1] of 84.4%, a residual activity [2] of 96.7% and a residual activity [3] of 92.1%. It also gave a residual activity [4] of 94.5%, a residual activity [5] of 94.3% and a residual activity [6] of 78.6%. The residual activity [7] was 92%, the residual activity [8] was 89.2% and the residual activity [9] was 89.6%. For the same molecule, the residual activity [10] was 71.7%, the residual activity [11] was 58.5% and the residual activity [12] was 57.2%. It also gave a residual activity [13] of 91.5%, a residual activity [14] of 51.2% and a residual activity [15] of 30.1%. It also gave a residual activity [16] of 85%, a residual activity [17] of 95.7% and a residual activity [18] of 93.4%. For the same molecule, the residual activity [19] was 35%, the residual activity [20] was 13.4% and the residual activity [21] was 44.3%. It also gave a residual activity [22] of 99.4%, a residual activity [23] of 92.3% and a residual activity [24] of 65.3%. The residual activity [25] was 105%, the residual activity [26] was 101% and the residual activity [27] was 96%. It also gave a residual activity [28] of 101%, a residual activity [29] of 103% and a residual activity [30] of 109%. For the same molecule, the residual activity [31] was 84.3% and 90%, the residual activity [32] was 89.5% and the residual activity [33] was 83.2%. For the same molecule, the residual activity [34] was 123%, the residual activity [35] was 101% and the residual activity [36] was 112%. The residual activity [37] was 101%, the residual activity [38] was 9.87% and the residual activity [39] was 89%. For the same molecule, the residual activity [40] was 96.3% and the residual activity [41] was 97.9%.

Molecule `O=C1c2ccccc2-c2nc3nnnn3nc21` has a residual activity [1] of 78.1%, a residual activity [2] of 88% and a residual activity [3] of 26.7%. It also gave a residual activity [4] of 90.4%, a residual activity [5] of 99.3% and a residual activity [6] of 92.4%. The residual activity [7] was 81%, the residual activity [8] was 83.3% and the residual activity [42] was 99.1%. It also gave a residual activity [9] of 66.9%, a residual activity [10] of 91.7% and a residual activity [11] of 86.5%. For the same molecule, the residual activity [12] was 76.6%, the residual activity [13] was 93.9% and the residual activity [14] was 84%. It also gave a residual activity [15] of 53.1%, a residual activity [16] of 85.8% and a residual activity [17] of 58.7%. For the same molecule, the residual activity [18] was 46.3%, the residual activity [19] was 87% and the residual activity [20] was 87.2%. The residual activity [21] was 66.7%, the residual activity [22] was 89.4% and the residual activity [23] was 90.2%. For the same molecule, the residual activity [24] was 44.1%, the residual activity [25] was 83.4% and the residual activity [26] was 91.8%. For the same molecule, the residual activity [27] was 134%, the residual activity [28] was 28.5% and the residual activity [29] was 68.4%. For the same molecule, the residual activity [31] was 109% and 133%, the residual activity [32] was 91.1% and the residual activity [33] was 98.2%. The residual activity [34] was 93.1%, the residual activity [35] was 83.6% and the residual activity [36] was 78.3%. For the same molecule, the residual activity [37] was 100%, the residual activity [38] was 91.2% and the residual activity [39] was 113%. It also gave a residual activity [40] of 85.8% and a residual activity [41] of 92.5%.

With `NC(=O)c1cccc(-c2cc(Nc3ccc(OC(F)(F)F)cc3)ncn2)c1` the residual activity [1] was 100%, the residual activity [2] was 98.3% and the residual activity [3] was 93.2%. For the same molecule, the residual activity [4] was 101%, the residual activity [5] was 102% and the residual activity [6] was 98.2%. The residual activity [7] was 97.9%, the residual activity [8] was 135% and the residual activity [42] was 100%. The residual activity [9] was 94.3%, the residual activity [10] was 102% and the residual activity [11] was 99.5%. It also gave a residual activity [12] of 96.6%, a residual activity [13] of 105% and a residual activity [14] of 92.9%. For the same molecule, the residual activity [15] was 92.7%, the residual activity [16] was 109% and the residual activity [17] was 108%. For the same molecule, the residual activity [18] was 89.6%, the residual activity [19] was 92.4% and the residual activity [20] was 92.7%. For the same molecule, the residual activity [21] was 93%, the residual activity [22] was 94.3% and the residual activity [23] was 98%. For the same molecule, the residual activity [24] was 91.8%, the residual activity [25] was 109% and the residual activity [26] was 94.7%. It also gave a residual activity [27] of 104%, a residual activity [28] of 98.1% and a residual activity [29] of 94.8%. The residual activity [30] was 100%, the residual activity [31] was 92.9% and 98.4% and the residual activity [32] was 102%. For the same molecule, the residual activity [33] was 93.4%, the residual activity [34] was 99.4% and the residual activity [35] was 96.3%. The residual activity [36] was 90.3%, the residual activity [37] was 94.9% and the residual activity [39] was 78.7%. For the same molecule, the residual activity [40] was 103% and the residual activity [41] was 111%.

Source: the kinase profiling compilation of Christmann-Franck et al. (2016)
